From patent publication US12383539B2 (Cavion, Inc., priority 2018, dated 2025)

Key:
[1] = tested on: patients with essential tremor; test: T-CALM: Clinical Global Impression of Improvement (CGI-I); type: in vivo, human
Description: The Clinical Global Impressions Scale (CGI) was developed for use in NIMH-sponsored clinical trials to provide a brief, stand-alone assessment of the clinician's view of a patient's global functioning before and after initiating a study medication (Guy (ed.), ECDEU Assessment Manual for Psychopharmacology. Rockville, MD: US Department of Health, Education, and Welfare Public Health Service Alcohol, Drug Abuse, and Mental Health Administration; 1976). The CGI is a summary measure that takes into account all available information, including knowledge of the patient's history, psychosocial circumstances, symptoms, behavior, and the impact of the symptoms on the patient's ability to function. The CGI has two forms—the CGI-Severity, which rates illness severity at baseline, and the CGI-Improvement, which rates change from baseline.
The CGI-I consists of a single 7-point rating of total improvement or change from baseline CGI-S, regardless of whether or not the change is due entirely to drug treatment.
Treatment success as measured by CGI-I was summarized using descriptive statistics.
The Clinical Global Impressions Scale (CGI) generates a clinician's perception of a patient's functioning prior to and after study medication (see, e.g., Guy, Assessment Manual for Psychopharmacology. Rockville, MD: Department of Health, Education, and Welfare Public Health Service Alcohol, Drug Abuse, and Mental Health Administration, 1976). The CGI overall score considers patient history, psychosocial situations, symptoms and behavior with respect to the ability to function. The CGI-Improvement (CGI-I) will involve a single 7-point rating of total improvement or change from baseline CGI-Severity (CGI-S).

[2] = tested on: patients with essential tremor; test: T-CALM: Kinesia ONE accelerometry score; type: in vivo, human
Description: Kinesia One platform is deployed in T-CALM as a digital marker of tremor severity. Kinesia One is FDA cleared for monitoring Parkinson's motor symptom severity with only limited data on assessment of tremor in ET patients. The algorithmically derived score was developed primarily in Parkinson's disease algorithms and has limited validation in ET (see, e.g., Hoffman et al., 2011 Conf Proc IEEE Eng Med Biol Soc. 2011:4378-81). The Kinesia One device is placed on the index finger of each ET patient and worn in the clinic after completion of the TETRAS Performance subscale. Four tasks are performed by the patient on the left and right sides to assess resting, postural, kinetic and lateral wing beating tremor. The Kinesia One score change in score from baseline to day 28 is evaluated as a secondary efficacy endpoint. The Kinesia One data is also utilized for exploratory analysis of efficacy on the change from baseline to day 15 for accelerometry score and for change from baseline on amplitude measures for days 15 and 28. Consistent finger sensor placement and consistent task execution are critical factors for valid Kinesia One scores.
Both sets of scores were statistically analyzed.

[3] = tested on: patients with essential tremor; test: T-CALM: TETRAS performance subscale (TETRAS-PS); conditions: for TETRAS-PS total score, change from baseline to Day 28, LS mean difference from placebo (95% CI) / TETRAS-PS total score, change from baseline to Day 28, LS mean (SE): ANCOVA; for TETRAS-PS total score, change from baseline to Day 28, LS mean (SE): multiple imputation

With `CC(C)c1ccc(CC(=O)N[C@H](C)c2ccc(OCC(F)(F)F)cn2)cc1` [CX-8998] the “CGI-I category 2 Much improved, number (%) of patients” value ([1]; Day 15, N = 39) was 6 (15%), the “CGI-I category 3 Very much improved, number (%) of patients” value ([1]; Day 15, N = 39) was 0 and the “CGI-I category −1 Minimally worse, number (%) of patients” value ([1]; Day 15, N = 39) was 0. For the same compound, the “CGI-I category −2 Much worse, number (%) of patients” value ([1]; Day 15, N = 39) was 0, the “CGI-I category −3 Very much worse, number (%) of patients” value ([1]; Day 15, N = 39) was 0 and the “CGI-I score 0-no change: subjects, number (%)” value ([1]; Day 28) was 13 (33%). The “CGI-I score 1-minimally improved: subjects, number (%)” value ([1]; Day 28) was 15 (38%), the “CGI-I score 2-much improved: subjects, number (%)” value ([1]; Day 28) was 9 (23%) and the “CGI-I score 3-very much improved: subjects, number (%)” value ([1]; Day 28) was 0. For the same compound, the “CGI-I score (rescaled −3 to 3), Mean (SD)” value ([1]; Day 28) was 1 (0.8), the “CGI-I score (rescaled −3 to 3), Median (minimum, maximum)” value ([1]; Day 28) was 1 (0, 2) and the “CGI-I score −1-minimally worse: subjects, number (%)” value ([1]; Day 28) was 0. The “CGI-I score −2-much worse: subjects, number (%)” value ([1]; Day 28) was 0, the “CGI-I score −3-very much worse: subjects, number (%)” value ([1]; Day 28) was 0 and the “responders: improvement by CGI-I, %” value ([1]; Day 28) was “(64.9%)”. For the same compound, the “CGI-I: No Change, number of subjects” value ([1]; Day 28, total 37) was 13, the “CGI-I: Worsened, number of subjects” value ([1]; Day 28, total 37) was 0 and the “CGI-I score, LS mean (SE)” value ([1]; Day 28, ANCOVA) was 1.0 (0.13). For the same compound, the “CGI-I score, LS mean difference from placebo (95% CI)” value ([1]; Day 28, ANCOVA) was 0.6 (0.3, 0.9), the “CGI-I category 0 No change, number (%) of patients” value ([1]; Day 28, N = 39) was 13 (33%) and the “CGI-I category 1 Minimally improved, number (%) of patients” value ([1]; Day 28, N = 39) was 15 (38%). The “CGI-I category 2 Much improved, number (%) of patients” value ([1]; Day 28, N = 39) was 9 (23%), the “CGI-I category 3 Very much improved, number (%) of patients” value ([1]; Day 28, N = 39) was 0 and the “CGI-I category −1 Minimally worse, number (%) of patients” value ([1]; Day 28, N = 39) was 0. For the same compound, the “CGI-I category −2 Much worse, number (%) of patients” value ([1]; Day 28, N = 39) was 0, the “CGI-I category −3 Very much worse, number (%) of patients” value ([1]; Day 28, N = 39) was 0 and the “Kinesia ONE total score, Median” value ([2]; Day 15) was 7.9. For the same compound, the “Kinesia ONE total score, change from baseline, Median” value ([2]; Day 15) was −1.1, the “Kinesia ONE score vs placebo” value ([2]; Day 15 and Day 28) was “did not show a significant difference” and the “Kinesia ONE total score, Median” value ([2]; Day 28) was 7.8. For the same compound, the “Kinesia ONE total score, change from baseline, Median” value ([2]; Day 28) was −0.7, the “responders: improvement of at least 5 points by TETRAS-PS score, %” value ([3]; Day 15) was “(30.8%)” and the “TETRAS-PS change from baseline 0 change: subjects, number (%)” value ([3]; Day 15, N = 39) was 2 (5.1%). The “TETRAS-PS change from baseline >0 to 1 point improvement: subjects, number (%)” value ([3]; Day 15, N = 39) was 3 (7.7%), the “TETRAS-PS change from baseline >0 to 1 point worsening: subjects, number (%)” value ([3]; Day 15, N = 39) was 2 (5.1%) and the “TETRAS-PS change from baseline >1 to 2.5 point improvement: subjects, number (%)” value ([3]; Day 15, N = 39) was 4 (10.3%). The “TETRAS-PS change from baseline >1 to 2.5 point worsening: subjects, number (%)” value ([3]; Day 15, N = 39) was 5 (12.8%), the “TETRAS-PS change from baseline >2.5 to 5 point improvement: subjects, number (%)” value ([3]; Day 15, N = 39) was 10 (25.6%) and the “TETRAS-PS change from baseline >2.5 to 5 point worsening: subjects, number (%)” value ([3]; Day 15, N = 39) was 2 (5.1%). The “TETRAS-PS change from baseline >5 to 10 point improvement: subjects, number (%)” value ([3]; Day 15, N = 39) was 8 (20.5%), the “TETRAS-PS change from baseline >5 to 10 point worsening: subjects, number (%)” value ([3]; Day 15, N = 39) was 0 and the “TETRAS-PS change from baseline >10 point improvement: subjects, number (%)” value ([3]; Day 15, N = 39) was 3 (7.7%). For the same compound, the “TETRAS-PS change from baseline >10 point worsening: subjects, number (%)” value ([3]; Day 15, N = 39) was 0, the “responders: improvement of at least 5 points by TETRAS-PS score, %” value ([3]; Day 28) was “(43.2%)” and the “responders: improvement of at least 5 points by TETRAS-PS score, number” value ([3]; Day 28, N 37) was 16. The “TETRAS-PS change from baseline 0 change: subjects, number (%)” value ([3]; Day 28, N = 37) was 1 (2.6%), the “TETRAS-PS change from baseline >0 to 1 point improvement: subjects, number (%)” value ([3]; Day 28, N = 37) was 6 (15.4%) and the “TETRAS-PS change from baseline >0 to 1 point worsening: subjects, number (%)” value ([3]; Day 28, N = 37) was 2 (5.1%). For the same compound, the “TETRAS-PS change from baseline >1 to 2.5 point improvement: subjects, number (%)” value ([3]; Day 28, N = 37) was 5 (12.8%), the “TETRAS-PS change from baseline >1 to 2.5 point worsening: subjects, number (%)” value ([3]; Day 28, N = 37) was 1 (2.6%) and the “TETRAS-PS change from baseline >2.5 to 5 point improvement: subjects, number (%)” value ([3]; Day 28, N = 37) was 11 (28.2%). The “TETRAS-PS change from baseline >2.5 to 5 point worsening: subjects, number (%)” value ([3]; Day 28, N = 37) was 1 (2.6%), the “TETRAS-PS change from baseline >5 to 10 point improvement: subjects, number (%)” value ([3]; Day 28, N = 37) was 8 (20.5%) and the “TETRAS-PS change from baseline >5 to 10 point worsening: subjects, number (%)” value ([3]; Day 28, N = 37) was 0. For the same compound, the “TETRAS-PS change from baseline >10 point improvement: subjects, number (%)” value ([3]; Day 28, N = 37) was 4 (10.3%), the “TETRAS-PS change from baseline >10 point worsening: subjects, number (%)” value ([3]; Day 28, N = 37) was 0 and the “TETRAS-PS scored by investigators (in person), change from baseline, LS mean (±SE)” value ([3]; Day 28, analysis of Example 25) was −4.8±0.80. For the same compound, the “TETRAS-PS scored by independent video raters, change from baseline, LS mean (±SE)” value ([3]; Day 28, primary endpoint) was −1.8±0.81, the “TETRAS-PS total score, Mean (SD)” value ([3]; Day 28, Investigator Rated) was 23.6 (5.50) and the “TETRAS-PS total score, change from baseline to Day 28, Mean (SD)” value ([3]; Independent Video Raters) was −1.6 (4.36). For the same compound, the “TETRAS-PS total score, change from baseline to Day 28, Median” value ([3]; Independent Video Raters) was −1.5, the “TETRAS-PS total score, change from baseline to Day 28, LS mean difference from placebo (95% CI)” value ([3]; Independent Video Raters) was 0.5 (−1.5, 2.5) and the “TETRAS-PS total score, change from baseline to Day 28, LS mean (SE)” value ([3]; Independent Video Raters) was −1.8 (0.81). For the same compound, the “TETRAS-PS total score, change from baseline to Day 28, LS mean difference from placebo (95% CI)” value ([3]; Investigator Rated) was −2.0 (−4.0, 0.0), the “TETRAS-PS total score, change from baseline to Day 28, LS mean (SE)” value ([3]; Investigator Rated) was −4.8 (0.80) and the “TETRAS-PS total score, change from baseline to Day 28, Mean (SD)” value ([3]; subgroup No Concurrent Tremor Medication at Day 1, Independent Video Raters) was −2.5 (5.33).
